Data on 24 molecules can be found in patent US8283465B2, “Triazolopyridine compound, and action thereof as prolyl hydroxylase inhibitor or erythropoietin production-inducing agent” (Japan Tobacco Inc., priority 2009, dated 2012).

Structures can show the parent of a compound that is named as a salt.

Assay [1] deals with human EPO production, Hep3B cells. As to the kind of experiment: Human EPO production activity in Hep3B cells (EPO-ELISA of culture supernatant). In kind it is cell-based. Conditions: for production activity (%) at 30 μM in vitro, human EPO: 24 hr, values containing %, relative to maximum production; for EC50: Homo sapiens, 24 hr incubation, values consisting solely of numbers, read-out: EC50 (μM) in vitro, human EPO production activity. How it is done: The activity of the test compound on human EPO production was measured using Hep3B (AMC) established from human liver-derived cell line.
Hep3B cells were cultured in Eagle-MEM medium containing 10% fetal bovine serum, and the test compound was diluted with dimethyl sulfoxide (DMSO).
Hep3B cells were cultured in a 96-well plate, and a test compound was added at each concentration 24 hr later. After incubation at 37° C. for 24 hr, the culture supernatant was collected. The concentration of human EPO produced in the culture supernatant was measured using a human EPO-ELISA kit (manufactured by StemCell Technologies, 01630) according to the manufacturer's explanation, and the human EPO production activity (%) of the test compound was calculated based on the maximum value of production under the above conditions and the value without addition of the test compound. […] In these Tables, the values consisting solely of numbers show EC50 (μM) and those containing % show human EPO production activity (%) at […].
(ELISA stands for enzyme-linked immunosorbent assay.)

The target of a further assay is T1, human PHD2 (Homo sapiens, UniProt Q9GZT9).
T1 construct: made in house; host or cells: Sf9 insect cells (baculovirus, pVL1393 vector)
T1 sequence (Q9GZT9 whole entry): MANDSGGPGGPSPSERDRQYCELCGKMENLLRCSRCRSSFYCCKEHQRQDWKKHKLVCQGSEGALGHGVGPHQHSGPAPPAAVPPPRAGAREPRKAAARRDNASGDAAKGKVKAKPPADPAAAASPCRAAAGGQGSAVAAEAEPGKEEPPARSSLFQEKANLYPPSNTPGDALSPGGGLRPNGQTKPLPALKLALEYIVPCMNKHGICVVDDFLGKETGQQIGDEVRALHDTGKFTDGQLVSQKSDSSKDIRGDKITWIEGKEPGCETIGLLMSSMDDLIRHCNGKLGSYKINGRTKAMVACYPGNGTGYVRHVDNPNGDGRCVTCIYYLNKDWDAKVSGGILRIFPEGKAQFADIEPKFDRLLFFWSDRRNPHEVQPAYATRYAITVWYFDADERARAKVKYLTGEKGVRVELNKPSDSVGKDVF
Briefly: Measurement of human PHD inhibitory activity (TR-FRET, hydroxylation of HIF-1α partial peptide). The settings on record: human PHD2 enzyme 1 nM, 25° C. 30 min, values consisting solely of numbers; read-out: IC50 (μM) in vitro, human PHD inhibitory activity. In kind it is biochemical. How it is done: Human PHD2 was expressed in insect cell (Sf9 cell). […] The vector and baculovirus were cotransfected into Sf9, and human PHD2 expression baculovirus was isolated in Sf9. By using the virus, human PHD2-expressed cell was prepared. […] The cell lysate was flowed into a column filled with ANTI-FLAG M2 Affinity Gel Freezer Safe (SIGMA), washed, and the N-terminal FLAG-tag-added human PHD2 was eluted and collected.
VBC complex (VHL/Elongin B/Elongin C) was expressed in Escherichia coli (BL21(DE3)). […] After these expression vectors were transfected into Escherichia coli (BL21(DE3)), Escherichia coli was cultured at 37° C. in the medium containing IPTG. The collected Escherichia coli was disrupted by sonication and flowed into a column filled with Ni-NTA superflow (QIAGEN), washed, and the product was eluted and collected. The eluate was flowed into a column filled with Glutathione Sepharose 4B, washed, and the product was eluted and collected. […]
As for human PHD2 enzyme activity, hydroxylation of proline residue contained in the 19 residues of the partial peptide based on the sequence of HIF-1α as a substrate was measured by TR-FRET (Time-Resolved Fluorescence Resonance Energy Transfer) method.
A test compound and a substrate solution were added to a 96-well plate. The reaction was started by addition of a human PHD2 enzyme solution (final concentration 1 nM) to the reaction system. After incubation at 25° C. for 30 min, a stop solution containing EDTA was added, and a VBC complex solution containing europium (Eu) and Xlent was added, and the amount of hydroxylated proline residue was quantified by time-resolved fluorescence spectroscopy. The time-resolved fluorescence in each well was measured, and the human PHD inhibitory activity (%) of the test compound was calculated based on the values of enzyme non-addition well and test compound non-addition well.

In general, IC50 refers to the point on the concentration scale where inhibition reaches its midpoint. In the case of `O=C(O)CNC(=O)c1c(O)ccn2nc(-c3ccccc3)nc12` [Example 13, [(7-hydroxy-2-phenyl[1,2,4]triazolo[1,5-a]pyridine-8-carbonyl)amino]acetic acid hydrochloride], the “production activity (%) at 30 μM in vitro, human EPO” value (shortened to “production activity (%) at 30 μM”) in assay [1] turned out to be 1%. In addition, the IC50 at human PHD2 was 1.31 µM.

The term EC50 denotes the midpoint of the concentration-response curve. As for `O=C(O)CNC(=O)c1c(O)cc(CCc2ccc(Cl)cc2)n2ncnc12` [Example 14, ({5-[2-(4-chlorophenyl)ethyl]-7-hydroxy[1,2,4]triazolo[1,5-a]pyridine-8-carbonyl}amino)acetic acid hydrochloride], the EC50 in assay [1] turned out to be 5.1 µM. Besides, the IC50 on human PHD2 was determined as 0.23 µM.

With `O=C(O)CNC(=O)c1c(O)cc(CCc2ccccc2)n2nc(C3CC3)nc12` [Example 15, [(2-cyclopropyl-7-hydroxy-5-phenethyl[1,2,4]triazolo[1,5-a]pyridine-8-carbonyl)amino]acetic acid hydrochloride], the EC50 in assay [1] amounted to 29.1 µM. The IC50 at human PHD2 was 1.8 µM.

As to `O=C(O)CNC(=O)c1c(O)cc(CCc2ccc(C(F)(F)F)cc2)n2ncnc12` [Example 16, ({7-hydroxy-5-[2-(4-trifluoromethyl-phenyl)ethyl][1,2,4-]triazolo[1,5-a]pyridine-8-carbonyl}amino)acetic acid hydrochloride], in assay [1], the EC50 was 7 µM. Further, at human PHD2, the IC50 came to 0.32 µM.

As for `CC(C)CCc1cc(O)c(C(=O)NCC(=O)O)c2ncnn12` [Example 18, {[7-hydroxy-5-(3-methylbutyl)[1,2,4]triazolo[1,5-a]pyridine-8-carbonyl]amino}acetic acid hydrochloride], the EC50 in assay [1] came out at 6.1 µM. In addition, the IC50 at human PHD2 stood at 0.48 µM.

`O=C(O)CNC(=O)c1c(O)cc(CCc2cc(F)cc(F)c2)n2ncnc12` [Example 19, ({5-[2-(3,5-difluorophenyl)ethyl]-7-hydroxy[1,2,4]triazolo[1,5-a]pyridine-8-carbonyl}amino)acetic acid hydrochloride]: in assay [1], the EC50 was found to be 6.6 µM. In addition, on human PHD2, the IC50 stood at 0.26 µM.

Turning to `O=C(O)CNC(=O)c1c(O)cc(CC2CCCC2)n2ncnc12` [Example 20, [(5-cyclopentylmethyl-7-hydroxy[1,2,4]triazolo[1,5-a]pyridin-8-carbonyl)amino]acetic acid hydrochloride], the EC50 in assay [1] amounted to 6.6 µM. At human PHD2, the IC50 came to 0.59 µM.

Consider `O=C(O)CNC(=O)c1c(O)cc(-c2cc(F)cc(F)c2)n2ncnc12` [Example 21, {[5-(3,5-difluorophenyl)-7-hydroxy[1,2,4]triazolo[1,5-a]pyridine-8-carbonyl]amino}acetic acid], for which, in assay [1], the EC50 came out at 12 µM. Further, the IC50 at human PHD2 came out at 0.25 µM.

Take `O=C(O)CNC(=O)c1c(O)cc(-c2ccc(F)c(Cl)c2)n2ncnc12` [Example 23, {[5-(3-chloro-4-fluorophenyl)-7-hydroxy[1,2,4]triazolo[1,5-a]pyridine-8-carbonyl]amino}acetic acid hydrochloride]: the EC50 in assay [1] is 7.8 µM. For the same molecule, the IC50 on human PHD2 was determined as 0.19 µM.

As to `CC(C)(C)CCc1cc(O)c(C(=O)NCC(=O)O)c2ncnn12` [Example 24, {[5-(3,3-dimethylbutyl)-7-hydroxy[1,2,4]triazolo[1,5-a]pyridine-8-carbonyl]amino}acetic acid hydrochloride], in assay [1], the EC50 stood at 5.4 µM. Moreover, the IC50 on human PHD2 came to 0.57 µM.

`O=C(O)CNC(=O)c1c(O)cc(-c2ccc(F)c(F)c2)n2ncnc12` [Example 25, {[5-(3,4-difluorophenyl)-7-hydroxy[1,2,4]triazolo[1,5-a]pyridine-8-carbonyl]amino}acetic acid hydrochloride]: the EC50 in assay [1] came to 14.1 µM. Moreover, the IC50 at human PHD2 is 0.25 µM.

As to `Cc1ccc(-c2cc(O)c(C(=O)NCC(=O)O)c3ncnn23)cc1` [Example 26, {[7-hydroxy-5-(p-tolyl)[1,2,4]triazolo[1,5-a]pyridine-8-carbonyl]amino}acetic acid hydrochloride], the EC50 in assay [1] amounted to 7.5 µM. Also, at human PHD2, the IC50 was 0.33 µM.

For the molecule `O=C(O)CNC(=O)c1c(O)cc(CC2CCCCC2)n2ncnc12` [Example 28, [(5-cyclohexylmethyl-7-hydroxy[1,2,4]triazolo[1,5-a]pyridine-8-carbonyl)amino]acetic acid hydrochloride], the EC50 in assay [1] is 13.9 µM. For the same molecule, on human PHD2, the IC50 worked out at 1.38 µM.

`O=C(O)CNC(=O)c1c(O)cc(CCCc2ccccc2)n2ncnc12` [Example 29, {[7-hydroxy-5-(3-phenylpropyl)[1,2,4]triazolo[1,5-a]pyridine-8-carbonyl]amino}acetic acid]: in assay [1], the EC50 amounted to 11.3 µM. Also, the IC50 on human PHD2 stood at 0.92 µM.

For the molecule `O=C(O)CNC(=O)c1c(O)cc(C2CCCC2)n2ncnc12` [Example 30, [(5-cyclopentyl-7-hydroxy[1,2,4]triazolo[1,5-a]pyridine-8-carbonyl)amino]acetic acid hydrochloride], the EC50 in assay [1] stood at 15.4 µM. On human PHD2, the IC50 turned out to be 0.98 µM.

With `O=C(O)CNC(=O)c1c(O)cc(-c2cc(F)cc(C(F)(F)F)c2)n2ncnc12` [Example 31, {[5-(3-fluoro-5-trifluoromethyl-phenyl)-7-hydroxy[1,2,4]triazolo[1,5-a]pyridine-8-carbonyl]amino}acetic acid hydrochloride], the EC50 in assay [1] came to 12.1 µM. For the same molecule, on human PHD2, the IC50 amounted to 0.8 µM.

`O=C(O)CNC(=O)c1c(O)cc(-c2ccc(F)cc2)n2ncnc12` [Example 32, {[5-(4-fluorophenyl)-7-hydroxy[1,2,4]triazolo[1,5-a]pyridine-8-carbonyl]ammino}acetic acid hydrochloride]: the EC50 in assay [1] worked out at 15.6 µM. Also, the IC50 at human PHD2 was 0.38 µM.

For the molecule `O=C(O)CNC(=O)c1c(O)cc(-c2cccc(C(F)(F)F)c2)n2ncnc12` [Example 33, {[7-hydroxy-5-(3-trifluoromethyl-phhenyl)[1,2,4]triazolo[1,5-a]pyridine-8-carbonyl]ammino}acetic acid hydrochloride], the EC50 in assay [1] came to 10.1 µM. For the same molecule, the IC50 at human PHD2 came out at 0.46 µM.

On to `O=C(O)CNC(=O)c1c(O)cc(-c2cc(C(F)(F)F)ccc2F)n2ncnc12` [Example 34, {[5-(2-fluoro-5-trifluoromethyl-phenyl)-7-hydroxy[1,2,4]triazolo[1,5-a]pyridine-8-carbonyl]amino}acetic acid hydrochloride], for which the EC50 in assay [1] was 15 µM. Besides, the IC50 at human PHD2 worked out at 0.43 µM.

With `CC(C)c1cc(O)c(C(=O)NCC(=O)O)c2ncnn12` [Example 35, [(7-hydroxy-5-isopropyl[1,2,4]triazolo[1,5-a]pyridine-8-carbonyl)amino]acetic acid hydrochloride], in assay [1], the “production activity (%) at 30 μM” value turned out to be 43%. Moreover, the IC50 on human PHD2 stood at 0.88 µM.

Consider `O=C(O)CNC(=O)c1c(O)cc(-c2cc(Cl)cc(C(F)(F)F)c2)n2ncnc12` [Example 36, {[5-(3-chloro-5-trifluoromethyl-phenyl)-7-hydroxy[1,2,4]triazolo[1,5-a]pyridine-8-carbonyl]amino}acetic acid hydrochloride], for which the EC50 in assay [1] stood at 10.5 µM. Moreover, the IC50 at human PHD2 was 0.72 µM.

On to `N#Cc1cccc(-c2cc(O)c(C(=O)NCC(=O)O)c3ncnn23)c1` [Example 37, {[5-(3-cyanophenyl)-7-hydroxy[1,2,4]triazolo[1,5-a]pyridine-8-carbonyl]amino}acetic acid hydrochloride], for which the “production activity (%) at 30 μM” value in assay [1] came to 11%. In addition, the IC50 on human PHD2 was 0.2 µM.

With `O=C(O)CNC(=O)c1c(O)cc(CCc2ccc(C3CC3)cc2)n2ncnc12` [Example 38, ({5-[2-(4-cyclopropyl-phenyl)ethyl]-7-hydroxy[1,2,4]trizazolo[1,5-a]pyridine-8-carbonyl}amino)acetic acid hydrochloride], the EC50 in assay [1] came out at 8.7 µM. Moreover, the IC50 at human PHD2 was 0.59 µM.

With `CC(C)(C)Cc1cc(O)c(C(=O)NCC(=O)O)c2ncnn12` [Example 39, {[5-(2,2-dimethylpropyl)-7-hydroxy[1,2,4]triazolo[1,5-a]pyridine-8-carbonyl]amino}acetic acid hydrochloride], the EC50 in assay [1] was determined as 22.3 µM. The IC50 on human PHD2 was 1.25 µM.
